Experimental data published in patent publication US8822482B2, “Icotinib hydrochloride, synthesis, crystalline forms, pharmaceutical compositions, and uses thereof” (Beta Pharma, Inc., priority 2008, dated 2014).
Where two headings read alike, the source gives them in different places.

Experiments:
[1] = test system: human A431 (human epidermoid carcinoma cell line) xenograft tumor; assay: Tumor inhibition on human A431 xenograft in nude mice; assay type: in vivo, BALB/C nude mice
Source text: This was a preliminary study to compare Icotinib hydrochloride Crystalline Form I with erlotinib hydrochloride on inhibition of human A431 (human epidermoid carcinoma cell line) xenograft tumor.
Methods: The high EGFR-expressing human A431 (human epidermoid carcinoma cell line) cell line was selected for the xenograft study.
Tumor transplantation method: A431 human epidermoid cancer cells were inoculated subcutaneously in the right armpit of BALB/C nude mice to generate tumor nodules. These nodules were harvested, cut into 6 mm^3 blocks for routine inoculation and implanted into each mouse for the study. When tumors reached approximately 20 mm^3 in size (6-7 days), the animals were randomly divided into 4 groups of 6-9 animals/each group and body weights were recorded. The groups consisted of a control group (no drug treatment), an erlotinib hydrochloride treatment group (200 mg/kg) and high and low dose Icotinib hydrochloride Crystalline Form I treatment groups (200 and 50 mg/kg). Drugs were administered by oral gavage once daily; dosing frequency depended on the individual case for tumor growth. Tumor volume [tumor volume (V)=tumor size (L)×short diameter of tumor (S)^2/2] was measured using calipers once every 3 days. The animals were sacrificed 24-hour after the last drug administration and weighed. The tumor was removed and weighed to accurately calculate the tumor size. All group data was analyzed using the t test. If the p value was <0.05, it was considered to be statistically significant. Efficacy determination: tumor inhibition rate=[1−treatment group mean tumor weight (T)/control group mean tumor weight (C)]×100%

[2] = test system: H460 human lung adenocarcinoma xenograft; assay type: in vivo
EGFR tyrosine kinase = EGFR tyrosine kinase (Homo sapiens, UniProt P00533); assay: Inhibition of EGFR tyrosine kinase, 32P-ATP Crk substrate phosphorylation, polyacrylamide gel electrophoresis; assay type: biochemical; conditions: for inhibition at 0.0625 µM: 62.5 nM
EGFR tyrosine kinase, sequence (P00533 25-1210): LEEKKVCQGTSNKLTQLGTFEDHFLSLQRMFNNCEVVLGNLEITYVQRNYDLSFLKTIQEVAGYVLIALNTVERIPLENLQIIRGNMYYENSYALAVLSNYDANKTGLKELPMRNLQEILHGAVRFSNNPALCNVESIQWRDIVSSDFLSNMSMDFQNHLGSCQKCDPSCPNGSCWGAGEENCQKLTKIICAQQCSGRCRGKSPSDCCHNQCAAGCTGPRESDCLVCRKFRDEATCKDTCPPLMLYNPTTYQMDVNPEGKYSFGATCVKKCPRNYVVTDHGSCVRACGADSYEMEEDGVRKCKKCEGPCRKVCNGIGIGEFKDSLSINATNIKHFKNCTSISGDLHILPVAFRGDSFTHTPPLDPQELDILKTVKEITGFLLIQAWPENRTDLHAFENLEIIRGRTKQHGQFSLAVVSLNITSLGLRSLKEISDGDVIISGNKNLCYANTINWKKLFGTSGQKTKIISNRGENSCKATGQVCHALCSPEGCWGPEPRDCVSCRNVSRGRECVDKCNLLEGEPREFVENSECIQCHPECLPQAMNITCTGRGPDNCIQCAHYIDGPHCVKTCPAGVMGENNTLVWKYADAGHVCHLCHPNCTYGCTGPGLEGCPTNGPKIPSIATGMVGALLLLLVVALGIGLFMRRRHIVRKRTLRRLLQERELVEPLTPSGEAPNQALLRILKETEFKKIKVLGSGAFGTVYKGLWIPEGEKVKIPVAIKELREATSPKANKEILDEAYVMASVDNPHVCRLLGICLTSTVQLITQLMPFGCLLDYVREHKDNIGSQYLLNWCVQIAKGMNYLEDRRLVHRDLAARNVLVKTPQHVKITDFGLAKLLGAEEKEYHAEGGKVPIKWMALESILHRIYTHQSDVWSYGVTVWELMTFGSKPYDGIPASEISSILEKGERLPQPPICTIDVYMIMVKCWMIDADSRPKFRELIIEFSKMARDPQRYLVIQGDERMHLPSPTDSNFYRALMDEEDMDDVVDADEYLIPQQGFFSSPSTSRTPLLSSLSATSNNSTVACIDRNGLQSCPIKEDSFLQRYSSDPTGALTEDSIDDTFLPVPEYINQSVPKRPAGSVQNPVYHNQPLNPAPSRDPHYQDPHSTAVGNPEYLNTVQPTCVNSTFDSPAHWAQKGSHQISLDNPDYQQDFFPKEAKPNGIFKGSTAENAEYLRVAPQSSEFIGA
Method: Method: This method is based on the ability of protein kinases to catalyze substrate phosphorylation; radioisotope ^32P-labeled ATP (^32P-γ-ATP) is utilized in the reaction system to radioactively tag the protein substrate with ^32P. After separation and isolation of the protein substrate by polyacrylamide gel electrophoresis, the intensity of the radioactive ^32P-labeled protein substrate is recorded.
The kinase reaction buffer included 1 μM of non-isotope labeled-ATP. […] The mixture was incubated on ice for 10 min, and 1 μCi of ^32P-γ-ATP was then added. After incubation at 30° C. for 20 min, SDS (sodium dodecyl sulfate) sample buffer was added, and the mixture was boiled in a 100° C. water bath for 4 min. The samples were separated by 10% SDS-PAGE. After vacuum drying of the polyacrylamide gel, the intensity of radioactively labeled proteins were measured and recorded using a Phosphorimager (Molecular Dynamics Inc.). The signal was quantitatively analyzed utilizing ImageQuant software. The degree of Crk substrate phosphorylation was used to estimate the activity of the kinase. Inhibition (%)=(1−kinase activity of the test group/kinase activity of control group)×100%

[3] = test system: advanced non-small cell lung cancer (NSCLC); assay: Phase IIa clinical trial in advanced NSCLC patients; assay type: in vivo, human
Source text: Definitions of terms used: PR: partial remission, CR: complete remission, SD: stable disease, PD: progression of disease, ORR: objective response rate, DCR: disease control rate.

[4] = Phase I clinical safety study, single doses of tablets; assay type: in vivo, human; conditions: 25-1025 mg single doses, 76 subjects
[5] = Pharmacology and toxicology experiments, safety pharmacology; assay type: in vivo, Beagle dogs, mice, and rats
Method: Pharmacology and toxicology experiments in Beagle dogs, mice, and rats using Icotinib hydrochloride Crystalline Form I were also conducted.

[6] = 225 mg/day (75 mg, 3 times a day)
[7] = 300 mg/day (100 mg, 3 times a day)
[8] = 300 mg/day (150 mg, Twice a day)
[9] = 375 mg/day (125 mg, 3 times a day)
[10] = 400 mg/day (200 mg, Twice a day)
[11] = 450 mg/day (150 mg, 3 times a day)
[12] = 600 mg/day (200 mg, 3 times a day)

C#Cc1cccc(Nc2ncnc3cc4c(cc23)OCCOCCOCCO4)c1.Cl [4-[(3-ethynyl-phenyl)amino]-6,7-benzo-12-crown-quinazoline hydrochloride]
body weight and appearance at experiment termination ([1]; A431 xenograft nude mice): gained weight
tumor inhibition rate ([1]; A431 xenograft, 200 mg/kg oral gavage once daily (later reduced to 100 mg/kg)): 64.6%
toxic effects ([1]; at either dose (200 and 50 mg/kg)): No toxic effects were observed
anti-tumor effect (in words) ([1]; given orally, A431 xenograft mouse model): significant anti-tumor effects
H460 tumor inhibition rate ([2]; 30 mg/kg oral gavage once daily for 14 days): 37.5%
H460 tumor inhibition rate ([2]; 60 mg/kg oral gavage once daily for 14 days): 49.3%
H460 tumor inhibition rate ([2]; 120 mg/kg oral gavage once daily for 14 days): 52.0%
inhibition at 0.0005 µM (EGFR tyrosine kinase; 0.5 nM, read-out: inhibition rate of EGFR kinase activity): 20.5%
inhibition at 0.0025 µM (EGFR tyrosine kinase; 2.5 nM, read-out: inhibition rate of EGFR kinase activity): 36.6%
inhibition at 0.0125 µM (EGFR tyrosine kinase; 12.5 nM, read-out: inhibition rate of EGFR kinase activity): 63%
inhibition at 0.0625 µM (EGFR tyrosine kinase; parallel comparison with Arg kinase, read-out: inhibition of EGFR kinase): 97%
inhibition at 0.0625 µM (EGFR tyrosine kinase; read-out: inhibition rate of EGFR kinase activity): 87.6%
IC50 (EGFR tyrosine kinase; from the dose-response curve, read-out: IC50 to inhibit EGFR kinase activity): 5 nM
inhibitory activity on drug metabolism enzymes (drug metabolism enzymes): no inhibitory activity
CR (complete remission), number of patients [3, 6]: 0
DCR (disease control rate) [3, 6]: 85.70%
ORR (objective response rate) [3, 6]: 0.00%
PD (progression of disease), number of patients [3, 6]: 1
PR (partial remission), number of patients [3, 6]: 0
CR (complete remission), number of patients [3, 7]: 2
DCR (disease control rate) [3, 7]: 62.96%
ORR (objective response rate) [3, 7]: 25.93%
PD (progression of disease), number of patients [3, 7]: 10
PR (partial remission), number of patients [3, 7]: 5
CR (complete remission), number of patients [3, 8]: 1
DCR (disease control rate) [3, 8]: 69.57%
ORR (objective response rate) [3, 8]: 30.43%
PD (progression of disease), number of patients [3, 8]: 4
PR (partial remission), number of patients [3, 8]: 6
CR (complete remission), number of patients [3, 9]: 0
DCR (disease control rate) [3, 9]: 91.70%
ORR (objective response rate) [3, 9]: 37.50%
PD (progression of disease), number of patients [3, 9]: 2
PR (partial remission), number of patients [3, 9]: 9
CR (complete remission), number of patients [3, 10]: 0
DCR (disease control rate) [3, 10]: 55.56%
ORR (objective response rate) [3, 10]: 0.00%
PD (progression of disease), number of patients [3, 10]: 3
PR (partial remission), number of patients [3, 10]: 0
CR (complete remission), number of patients [3, 11]: 0
DCR (disease control rate) [3, 11]: 90.10%
ORR (objective response rate) [3, 11]: 45.45%
PD (progression of disease), number of patients [3, 11]: 1
PR (partial remission), number of patients [3, 11]: 5
CR (complete remission), number of patients [3, 12]: 0
DCR (disease control rate) [3, 12]: 66.67%
ORR (objective response rate) [3, 12]: 0.00%
PD (progression of disease), number of patients [3, 12]: 1
treatment of non-small cell lung cancer (in words) ([3]; advanced NSCLC patients, oral tablets): effective
clinical safety of single doses [4]: safe
bone marrow toxicity ([5]; Beagle dogs, mice, and rats): no bone marrow toxicity
liver toxicity ([5]; Beagle dogs, mice, and rats): reversible liver toxicity
oral toxicity ([5]; Beagle dogs, mice, and rats): low oral toxicity
teratogenic, mutagenic and reproductive toxicity ([5]; additional toxicity testing): no teratogenic, mutagenic and reproductive toxicity
effect on autonomic nervous system activity or the central nervous system ([5]; safety pharmacological test): no effect
effect on respiration, blood pressure and circulatory function ([5]; safety pharmacological test): no effect
